US20110230481A2, “DERIVATIVES OF TETRABROMOBENZIMIDAZOLE, A PROCESS FOR THE PREPARATION THEREOF, A PHARMACEUTICAL COMPOSITION COMPRISING THE SAME, A METHOD OF USING THE SAME, A METHOD FOR MODULATING OR REGULATING SERINE/THREONINE KINASES, AND SERINE/THREONINE KINASES MODULATING AGENT” (SELVITA S.A., priority 2009, published 2011)

Columns and labels:
Assay in all cases: KINOMEscan Max
Type in all cases: binding
PAK2 = molecular target: T1, PAK2 (Homo sapiens, UniProt Q13177)
T1 construct: purchased Ambit (KINOMEscan Max service)
T1 sequence (Q13177 whole entry): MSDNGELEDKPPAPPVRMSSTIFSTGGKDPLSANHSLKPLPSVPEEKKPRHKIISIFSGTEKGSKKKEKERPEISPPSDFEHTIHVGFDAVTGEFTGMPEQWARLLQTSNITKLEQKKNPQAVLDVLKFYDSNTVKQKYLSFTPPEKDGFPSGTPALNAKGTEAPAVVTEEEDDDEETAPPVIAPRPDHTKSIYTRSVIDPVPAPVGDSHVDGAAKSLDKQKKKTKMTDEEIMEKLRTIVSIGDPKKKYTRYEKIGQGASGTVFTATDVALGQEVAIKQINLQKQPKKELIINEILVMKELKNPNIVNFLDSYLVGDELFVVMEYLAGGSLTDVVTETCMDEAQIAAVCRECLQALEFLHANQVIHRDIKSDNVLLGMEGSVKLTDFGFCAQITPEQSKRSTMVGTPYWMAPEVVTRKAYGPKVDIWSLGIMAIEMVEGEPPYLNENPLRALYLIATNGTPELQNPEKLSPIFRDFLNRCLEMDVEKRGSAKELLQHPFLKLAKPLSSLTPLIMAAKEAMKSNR
In short: (§1)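 Competitive displacement format with DNA-tagged human kinase and an immobilized active-site probe; detection by qPCR amplification of the kinase's DNA tag.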

SNARK = molecular target: T2, SNARK (Homo sapiens, UniProt Q9H093); conditions: 1 μM
T2 construct: DNA tag (qPCR read-out)
In short: as §1

CAMKK2 = molecular target: T3, CAMKK2 (Homo sapiens, UniProt Q96RR4)
T3 construct: DNA tag (qPCR label); purchased Ambit Kinomescan (contract screening)
In short: as §1

AKT2 = AKT2 (Homo sapiens, UniProt P31751)
In short: as §1

ICK = molecular target: T4, ICK (Homo sapiens, UniProt Q9UPZ9)
T4 construct: purchased Ambit Kinomescan (contract panel, KINOMEscan Max)
T4 sequence (Q9UPZ9 whole entry): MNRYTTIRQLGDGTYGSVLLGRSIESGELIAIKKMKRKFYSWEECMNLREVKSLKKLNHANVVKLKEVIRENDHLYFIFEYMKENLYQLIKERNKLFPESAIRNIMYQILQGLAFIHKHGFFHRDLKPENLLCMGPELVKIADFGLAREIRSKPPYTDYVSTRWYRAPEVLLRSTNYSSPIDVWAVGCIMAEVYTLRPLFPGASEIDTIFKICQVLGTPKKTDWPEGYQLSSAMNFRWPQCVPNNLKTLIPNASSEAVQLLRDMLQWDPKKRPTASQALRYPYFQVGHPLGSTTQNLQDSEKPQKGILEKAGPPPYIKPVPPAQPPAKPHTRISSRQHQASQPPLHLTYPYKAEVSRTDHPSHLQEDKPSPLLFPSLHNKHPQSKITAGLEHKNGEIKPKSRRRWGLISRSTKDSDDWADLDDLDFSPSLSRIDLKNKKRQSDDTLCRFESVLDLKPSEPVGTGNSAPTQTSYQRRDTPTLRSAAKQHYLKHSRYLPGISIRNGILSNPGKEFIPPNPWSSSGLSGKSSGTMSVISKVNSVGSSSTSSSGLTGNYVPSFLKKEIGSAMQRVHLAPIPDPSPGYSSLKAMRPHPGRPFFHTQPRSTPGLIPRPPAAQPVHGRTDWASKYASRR
In short: as §1

[1] = molecular target: T5, RSK3(Kin.Dom.1-N-terminal) (Homo sapiens, UniProt Q15349)
T5 construct: RSK3(Kin.Dom.1-N-terminal); DNA tag (qPCR read-out)
In short: as §1

PIK3CA = molecular target: T6, PIK3CA (Homo sapiens, UniProt P42336)
T6 construct: DNA tag (qPCR read-out)
In short: as §1

TNK1 = molecular target: T7, TNK1 (Homo sapiens, UniProt Q13470)
T7 construct: DNA tag (qPCR read-out)
In short: as §1

CSF1R = molecular target: T8, CSF1R (Homo sapiens, UniProt P07333)
T8 construct: purchased Ambit (KINOMEscan Max panel service)
In short: as §1

NLK = NLK (Homo sapiens, UniProt Q9UBE8)
In short: as §1

MKNK2 = molecular target: T9, MKNK2 (Homo sapiens, UniProt Q9HBH9)
T9 construct: DNA tag (qPCR read-out)
In short: as §1

ROCK2 = molecular target: T10, ROCK2 (Homo sapiens, UniProt O75116)
T10 construct: purchased Ambit (KINOMEscan Max service)
In short: as §1

EGFR(G719S) = molecular target: T11, EGFR(G719S) (Homo sapiens, UniProt P00533, G719S); conditions: 1 μM
T11 construct: purchased Ambit (KINOMEscan Max panel service)
In short: as §1

MST3 = MST3 (Homo sapiens, UniProt Q9Y6E0); conditions: 1 μM
In short: as §1

RIPK2 = molecular target: T12, RIPK2 (Homo sapiens, UniProt O43353)
T12 construct: DNA tag (qPCR read-out)
In short: as §1

STK39 = molecular target: T13, STK39 (Homo sapiens, UniProt Q9UEW8)
T13 construct: DNA tag (qPCR read-out)
In short: as §1

MAST1 = MAST1 (Homo sapiens, UniProt Q9Y2H9)
In short: as §1

CLK4 = molecular target: T14, CLK4 (Homo sapiens, UniProt Q9HAZ1)
T14 construct: DNA tag (qPCR read-out); purchased Ambit Kinomescan
In short: as §1

PFCDPK1(P.falciparum) = molecular target: T15, PFCDPK1(P.falciparum) (Plasmodium falciparum, UniProt P62344)
T15 construct: purchased Ambit Kinomescan (contract screening)
T15 sequence (P62344 whole entry): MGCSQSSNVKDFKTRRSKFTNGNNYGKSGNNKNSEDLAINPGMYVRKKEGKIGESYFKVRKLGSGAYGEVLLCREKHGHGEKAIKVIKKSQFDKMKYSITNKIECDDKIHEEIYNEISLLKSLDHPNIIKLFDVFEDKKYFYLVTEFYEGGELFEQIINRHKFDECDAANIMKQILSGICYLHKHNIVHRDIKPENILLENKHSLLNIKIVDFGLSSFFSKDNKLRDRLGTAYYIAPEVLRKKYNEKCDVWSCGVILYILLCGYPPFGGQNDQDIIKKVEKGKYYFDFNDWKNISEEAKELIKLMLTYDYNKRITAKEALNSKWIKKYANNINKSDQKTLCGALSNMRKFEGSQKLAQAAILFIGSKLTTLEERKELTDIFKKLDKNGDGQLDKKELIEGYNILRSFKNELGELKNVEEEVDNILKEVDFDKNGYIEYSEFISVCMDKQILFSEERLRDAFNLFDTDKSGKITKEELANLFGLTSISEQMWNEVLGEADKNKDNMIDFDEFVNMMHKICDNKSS
In short: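 Quantitative PCR of the DNA tag reports competition between test compound and an immobilized, active-site directed ligand for binding to each DNA-tagged kinase.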

ACVR1B = ACVR1B (Homo sapiens, UniProt P36896)
In short: as §1

DRAK1 = DRAK1 (Homo sapiens, UniProt Q9UEE5)
In short: as §1

CSNK1D = molecular target: T16, CSNK1D (Homo sapiens, UniProt P48730)
T16 construct: DNA tag (qPCR read-out); purchased Ambit Kinomescan
In short: as §1

CSNK1G2 = molecular target: T17, CSNK1G2 (Homo sapiens, UniProt P78368); conditions: 1 μM
T17 construct: purchased Ambit (KINOMEscan Max panel service)
In short: as §1

CIT = CIT (Homo sapiens, UniProt O14578); conditions: 1 μM
CIT, sequence (O14578 whole entry): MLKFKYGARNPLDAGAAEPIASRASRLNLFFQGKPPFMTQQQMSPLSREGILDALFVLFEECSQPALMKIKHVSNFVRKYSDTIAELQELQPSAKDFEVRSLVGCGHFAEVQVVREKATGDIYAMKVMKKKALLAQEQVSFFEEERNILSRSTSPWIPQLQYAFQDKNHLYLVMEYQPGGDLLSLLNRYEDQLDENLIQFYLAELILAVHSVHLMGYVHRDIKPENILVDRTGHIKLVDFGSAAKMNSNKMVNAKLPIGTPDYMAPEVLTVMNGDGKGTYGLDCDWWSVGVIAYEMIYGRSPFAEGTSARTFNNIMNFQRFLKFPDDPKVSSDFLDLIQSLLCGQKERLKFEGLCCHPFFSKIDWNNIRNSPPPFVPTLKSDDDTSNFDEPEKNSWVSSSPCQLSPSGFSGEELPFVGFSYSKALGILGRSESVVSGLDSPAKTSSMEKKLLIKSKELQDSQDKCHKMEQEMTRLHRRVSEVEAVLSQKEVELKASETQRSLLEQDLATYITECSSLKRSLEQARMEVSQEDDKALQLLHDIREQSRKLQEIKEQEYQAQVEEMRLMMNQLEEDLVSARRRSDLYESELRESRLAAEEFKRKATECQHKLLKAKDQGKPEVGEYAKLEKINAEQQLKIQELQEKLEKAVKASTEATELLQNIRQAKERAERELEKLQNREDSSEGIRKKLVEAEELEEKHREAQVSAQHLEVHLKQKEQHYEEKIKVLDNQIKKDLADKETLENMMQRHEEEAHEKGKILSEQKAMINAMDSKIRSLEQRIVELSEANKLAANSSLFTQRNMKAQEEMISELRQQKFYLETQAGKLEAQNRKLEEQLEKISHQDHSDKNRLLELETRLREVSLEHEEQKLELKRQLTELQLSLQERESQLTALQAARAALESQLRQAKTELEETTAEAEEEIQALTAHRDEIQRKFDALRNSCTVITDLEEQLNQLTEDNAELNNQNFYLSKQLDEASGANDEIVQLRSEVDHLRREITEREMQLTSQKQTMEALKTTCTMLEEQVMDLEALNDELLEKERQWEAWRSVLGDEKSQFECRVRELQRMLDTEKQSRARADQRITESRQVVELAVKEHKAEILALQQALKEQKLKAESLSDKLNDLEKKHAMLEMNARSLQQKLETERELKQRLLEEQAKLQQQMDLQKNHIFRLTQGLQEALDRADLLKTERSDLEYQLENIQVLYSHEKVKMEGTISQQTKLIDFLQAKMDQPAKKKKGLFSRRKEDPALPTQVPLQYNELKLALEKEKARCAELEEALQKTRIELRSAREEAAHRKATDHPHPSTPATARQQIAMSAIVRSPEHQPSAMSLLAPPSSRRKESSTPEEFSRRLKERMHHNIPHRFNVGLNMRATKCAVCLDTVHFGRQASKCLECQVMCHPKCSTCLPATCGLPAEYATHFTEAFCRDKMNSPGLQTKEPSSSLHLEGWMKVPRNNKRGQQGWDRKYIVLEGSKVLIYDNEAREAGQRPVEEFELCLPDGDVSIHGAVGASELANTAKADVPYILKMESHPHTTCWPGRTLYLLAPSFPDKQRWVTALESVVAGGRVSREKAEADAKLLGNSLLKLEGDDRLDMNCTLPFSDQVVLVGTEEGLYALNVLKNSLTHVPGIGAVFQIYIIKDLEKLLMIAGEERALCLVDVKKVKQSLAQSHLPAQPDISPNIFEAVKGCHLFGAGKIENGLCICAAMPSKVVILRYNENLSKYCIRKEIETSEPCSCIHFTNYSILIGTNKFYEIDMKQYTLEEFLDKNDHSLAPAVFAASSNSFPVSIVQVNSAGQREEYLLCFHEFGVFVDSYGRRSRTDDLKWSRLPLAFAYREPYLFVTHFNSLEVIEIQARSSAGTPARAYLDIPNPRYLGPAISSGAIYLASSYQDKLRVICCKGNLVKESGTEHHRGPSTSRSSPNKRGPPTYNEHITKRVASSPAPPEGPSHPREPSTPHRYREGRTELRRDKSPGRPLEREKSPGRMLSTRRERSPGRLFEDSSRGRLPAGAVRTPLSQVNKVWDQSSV
In short: as §1

EGFR(L858R) = EGFR(L858R) (Homo sapiens, UniProt P00533, L858R); conditions: 1 μM
In short: as §1

PFTK1 = molecular target: T18, PFTK1 (Homo sapiens, UniProt O94921); conditions: 1 μM
T18 construct: DNA tag (qPCR read-out)
T18 sequence (O94921 whole entry): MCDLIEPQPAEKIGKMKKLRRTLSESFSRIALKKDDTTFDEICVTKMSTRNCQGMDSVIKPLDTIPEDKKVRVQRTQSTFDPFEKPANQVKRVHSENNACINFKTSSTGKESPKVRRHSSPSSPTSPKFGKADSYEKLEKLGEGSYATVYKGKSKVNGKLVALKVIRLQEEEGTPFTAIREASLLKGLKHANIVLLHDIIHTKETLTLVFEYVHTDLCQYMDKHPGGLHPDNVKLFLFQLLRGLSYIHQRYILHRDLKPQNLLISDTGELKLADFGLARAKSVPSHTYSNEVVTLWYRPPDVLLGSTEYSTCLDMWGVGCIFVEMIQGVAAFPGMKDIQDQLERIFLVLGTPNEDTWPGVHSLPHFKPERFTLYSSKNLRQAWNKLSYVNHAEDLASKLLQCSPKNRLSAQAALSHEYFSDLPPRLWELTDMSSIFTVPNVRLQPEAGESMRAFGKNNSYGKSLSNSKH
In short: as §1

MAP3K15 = molecular target: T19, MAP3K15 (Homo sapiens, UniProt Q6ZN16)
T19 construct: purchased Ambit Kinomescan (contract panel)
In short: as §1

MEK5 = MEK5 (Homo sapiens, UniProt Q13163)
In short: as §1

RIOK1 = molecular target: T20, RIOK1 (Homo sapiens, UniProt Q9BRS2)
T20 construct: DNA tag (qPCR read-out)
In short: as §1

INSR = molecular target: T21, INSR (Homo sapiens, UniProt P06213)
T21 construct: DNA tag (qPCR read-out)
In short: as §1

PCTK3 = PCTK3 (Homo sapiens, UniProt Q07002)
In short: as §1

FER = molecular target: T22, FER (Homo sapiens, UniProt P16591)
T22 construct: purchased Ambit Kinomescan (contract panel, KINOMEscan Max)
In short: as §1

EGFR(L747-T751del.Sins) = molecular target: T23, EGFR(L747-T751del.Sins) (Homo sapiens, UniProt P00533, DEL747-750/T751S); conditions: 1 μM
T23 construct: purchased Ambit (KINOMEscan Max panel service)
T23 sequence (P00533 with tags, fused parts or gaps DEL747-750/T751S limits assumed): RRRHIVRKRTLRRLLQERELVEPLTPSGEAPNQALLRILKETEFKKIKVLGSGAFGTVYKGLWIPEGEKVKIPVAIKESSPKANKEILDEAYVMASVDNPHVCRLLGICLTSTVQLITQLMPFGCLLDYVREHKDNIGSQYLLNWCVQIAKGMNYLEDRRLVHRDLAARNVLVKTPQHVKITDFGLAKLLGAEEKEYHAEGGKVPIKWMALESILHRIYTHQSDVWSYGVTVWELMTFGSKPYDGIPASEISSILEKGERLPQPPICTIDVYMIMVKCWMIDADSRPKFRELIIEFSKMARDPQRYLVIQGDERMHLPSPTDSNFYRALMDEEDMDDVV
In short: as §1

CDKL2 = molecular target: T24, CDKL2 (Homo sapiens, UniProt Q92772)
T24 construct: purchased Ambit (KINOMEscan Max service)
T24 sequence (Q92772 whole entry): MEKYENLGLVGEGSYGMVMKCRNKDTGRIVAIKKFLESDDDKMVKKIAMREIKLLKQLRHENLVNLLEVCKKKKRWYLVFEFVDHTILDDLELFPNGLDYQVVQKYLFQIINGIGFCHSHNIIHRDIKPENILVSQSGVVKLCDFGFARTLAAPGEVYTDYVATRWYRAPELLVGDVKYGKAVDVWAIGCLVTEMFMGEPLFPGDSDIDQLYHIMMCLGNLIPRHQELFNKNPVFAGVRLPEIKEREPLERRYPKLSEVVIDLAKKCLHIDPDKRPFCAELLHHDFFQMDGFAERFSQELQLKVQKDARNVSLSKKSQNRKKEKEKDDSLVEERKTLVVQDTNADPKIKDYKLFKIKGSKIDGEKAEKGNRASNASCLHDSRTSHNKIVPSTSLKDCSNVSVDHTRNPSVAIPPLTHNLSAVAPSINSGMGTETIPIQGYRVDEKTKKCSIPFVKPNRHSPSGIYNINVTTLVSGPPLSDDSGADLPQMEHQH
In short: as §1

For `NCCCNc1nc2c(Br)c(Br)c(Br)c(Br)c2[nH]1` [Compound 11, N-(3-aminopropyl)-4,5,6,7-tetrabromo-1H-benzo[d]imidazol-2-amine], the remaining binding at 1 µM (PAK2) was 64%, the “% binding” value (SNARK) was 54% and the remaining binding at 1 µM (CAMKK2) was 100%. It also gave a remaining binding at 1 µM (AKT2) of 99%, a remaining binding at 1 µM (ICK) of 100% and a remaining binding at 1 µM [1] of 100%. For the same compound, the remaining binding at 1 µM (PIK3CA) was 100%, the remaining binding at 1 µM (TNK1) was 90% and the remaining binding at 1 µM (CSF1R) was 100%. The remaining binding at 1 µM (NLK) was 100%, the remaining binding at 1 µM (MKNK2) was 35% and the remaining binding at 1 µM (ROCK2) was 71%. For the same compound, the “% binding” value (EGFR(G719S)) was 100%, the “% binding” value (MST3) was 98% and the remaining binding at 1 µM (RIPK2) was 100%. The remaining binding at 1 µM (STK39) was 100%, the remaining binding at 1 µM (MAST1) was 95% and the remaining binding at 1 µM (CLK4) was 22%. It also gave a remaining binding at 1 µM (PFCDPK1(P.falciparum)) of 96%, a remaining binding at 1 µM (ACVR1B) of 100% and a remaining binding at 1 µM (DRAK1) of 75%. The remaining binding at 1 µM (CSNK1D) was 17%, the “% binding” value (CSNK1G2) was 100% and the “% binding” value (CIT) was 93%. The “% binding” value (EGFR(L858R)) was 96%, the “% binding” value (PFTK1) was 100% and the remaining binding at 1 µM (MAP3K15) was 100%. It also gave a remaining binding at 1 µM (MEK5) of 73%, a remaining binding at 1 µM (RIOK1) of 56% and a remaining binding at 1 µM (INSR) of 41%. The remaining binding at 1 µM (PCTK3) was 92%, the remaining binding at 1 µM (FER) was 100% and the “% binding” value (EGFR(L747-T751del.Sins)) was 100%. The remaining binding at 1 µM (CDKL2) was 85%.
